From patent US7855290B2, “Pyridine derivatives and pyrimidine derivatives (3)” (Eisai R&D Management Co., Ltd., priority 2005, dated 2010) come the findings set out here.

In test [1] the target is T1, His6-HGFR (HGFR cytoplasmic domain) (Homo sapiens, UniProt P08581).
T1 construct: made in house; host or cells: Sf9 insect cells (Spodoptera frugiperda), baculovirus, pFastBac-HT vector
Nature of the test: Inhibitory activity against HGFR tyrosine kinase activity (HTRF). Format: biochemical. As to conditions: biotin-poly(GT), ATP, 30° C. 10 min. The source says:
The cytoplasmic domain of HGFR (Genbank Accession No. J02958) is a 1.3 kb DNA fragment beginning with Lys974 and including a stop codon, and described by Park et al. (Proc. Natl. Acad. Sci. U.S.A. 84(18), 6379-6383, 1987). The DNA fragment was isolated from the human placental cDNA library (purchased from Clontech) by PCR (TaKaRa Ex Taq™ Kit, purchased from TaKaRa) using two kinds of primers (SEQ ID NO: 1,5′-[…]-3′ and SEQ ID NO: 2,5′-[…]-3′, purchased from Invitrogen). The DNA fragment was cloned into a baculovirus transplace vector (pFastBac™-HT (purchased from GIBCO BRL)) to produce a recombinant construct. […] EGFR was purchased from Sigma (Production No. E-2645).
To the suspension of Sf9 cells (3×10^8 cells) in SF-900II medium (purchased from Invitrogen) containing 2% FBS was added a solution of HGFR transfected baculovirus above (4 ml), followed by a shaking culture at 27° C. for 48 hrs. The cells infected with the HGFR transfected baculovirus were centrifuged at 1,000 rpm, 4° C. for 5 min to remove the supernatant. The precipitated infected cells were suspended in 80 ml of ice-cold PBS, and centrifuged at 1,000 rpm, 4° C. for 5 min to remove the supernatant. The precipitated infected cells were suspended in 40 ml of ice-cold Lysis Buffer (50 mM Tris-HCl (pH 8.5), 5 mM 2-mercaptoethanol, 100 mM KCl, 1 mM PMSF and 1% (v/v) NP-40). The suspension was centrifuged at 12,000 rpm, 4° C. for 30 min to provide a supernatant.
The supernatant was loaded onto an Ni-NTA agarose column (3 ml, purchased from Qiagen) equilibrated with 30 ml of Buffer A (20 mM Tris-HCl (pH 8.5), 5 mM 2-mercaptoethanol, 500 mM KCl, 20 mM imidazole and 10% (v/v) glycerol). The column was washed with 30 ml of Buffer A, 6 ml of Buffer B (20 mM Tris-HCl (pH 8.5), 5 mM 2-mercaptoethanol, 1 M KCl, and 10% (v/v) glycerol) and 6 ml of Buffer A in this order. Then, the column was eluted with 6 ml of Buffer C (20 mM Tris-HCl (pH 8.5), 5 mM 2-mercaptoethanol, 100 mM KCl, 100 mM imidazole, and 10% (v/v) glycerol) to provide a fraction. The fraction was entrapped in a dialysis membrane (purchased from Spectrum Laboratories), dialyzed at 4° C. overnight with 1 L of dialysis buffer (20 mM Tris-HCl (pH 7.5), 10% (v/v) glycerol, 1 mM dithiothreitol, 0.1 mM Na3VO4 and 0.1 mM EGTA), and stored at −80° C. until used. […] The VEGFR2 cytoplasmic domain, the FGFR1 cytoplasmic domain, and the PDGFRβ cytoplasmic domain were fused with six histidine at the N terminus by the similar method to produce respective recombinant proteins (His6-VEGFR2, His6-FGFR1, and His6-PDGFRβ).
To each well of a 96-well round plate (purchased from NUNC, Production No. 163320) were added 10 μl of a solution for kinase reaction (200 mM Hepes (pH 7.4), 80 mM MgCl2, 16 mM MnCl2 and 2 mM Na3VO4), 250 ng of biotinylated poly(Glu4: Tyr1) (biotin-poly(GT), purchased from Japan Schering) (6 μl, 15-fold diluted with distilled water), 30 ng of His6-HGFR (10 μl, 60-fold diluted with 0.4% BSA) and a test substance dissolved in dimethylsulfoxide (4 μl, 100-fold diluted with 0.1% BSA) to mess up to 30 μl. To the well was added 10 μl of 4 μM ATP (purchased from Sigma) diluted with distilled water to incubate at 30° C. for 10 min, followed by adding 10 μl of 500 mM EDTA (pH 8.0) (purchased from Wako Pure Chemicals) to provide a kinase reaction solution.
The tyrosine-phosphorylated biotin-poly(GT) was detected using the Homogenous Time-Resolved Fluorescence (HTRF) method (Analytical Biochemistry, 269, 94-104, 1999).

Another test addresses T2, HGFR (Homo sapiens, UniProt P08581).
T2 construct: endogenous in cells; host or cells: MKN-45 human gastric cancer cells
Nature of the test: Inhibitory activity against the HGFR autophosphorylation using ELISA (MKN-45 cells). The class given is cell-based. To be noted: 1 hr with test substance. Here is the method:
Human gastric cancer cells (MKN-45) were suspended in a 1% FBS-containing RPMI1640 medium (purchased from Sigma). The cell suspension (1×10^5 cells/ml) was put in a 96-well plate for cell culture (purchased from NUNC, Production No. 167008) at 0.1 ml/well, and then cultured in a 5% CO2 incubator (37° C.) overnight. After the culture, from each well was removed the supernatant, followed by adding 0.05 ml of a 1% FBS-containing RPMI1640 medium. Then, the well was supplied with 0.05 ml of the test substance dissolved in dimethyl sulfoxide (diluted with a 1% FBS-containing RPMI1640 medium), followed by culturing in a 5% CO2 incubator (37° C.) for 1 hr. From each well was removed the supernatant, and each well was washed with 150 μl of PBS, followed by adding 100 μl of a lysis buffer (50 mM Hepes (pH 7.4), 150 mM NaCl, 10% (v/v) glycerol, 1% Triton X-100, 1.5 mM MgCl2, 1 mM EDTA (pH 8.0), 100 mM NaF, 1 mM PMSF, 10 μg/ml Aprotinin, 50 μg/ml Leupeptin, 1 μg/ml Pepstatin A and 1 mM Na3VO4). The plate was shaken at 4° C. for 1 hr to prepare the cell extract.
To a 96-well plate for ELISA (purchased from COSTAR, Production No. 3369) was added 50 μl of 60 mM bicarbonate buffer (pH 9.6) containing 50 μg/ml of an anti-phosphotyrosine antibody (PY20, purchased from Transduction Laboratory, Production No. P-11120). The plate was incubated at 4° C. overnight.
Each well of the plate prepared in 2. was washed three times with 200 μl of PBS, and supplied with 150 μl of 3% BSA/PBS, followed by incubating at room temperature for 2 hrs. Each well was washed three times with 200 μl of PBS, and supplied with 50 μl of the above cell extract, followed by incubating at 4° C. overnight. After the incubation, each well was washed three times with 250 μl of a washing solution (0.1% BSA, 20 mM Tris-HCl (pH 7.6), 137 mM NaCl, and 0.05% Tween-20), and supplied with 70 μl of anti-HGFR antibody (h-Met(C-12), purchased from Santa Cruz, Production No. sc-10) 2,000-fold diluted with a reaction solution (1% BSA, 20 mM Tris-HCl (pH 7.6), 137 mM NaCl and 0.05% Tween-20), followed by incubating at room temperature for 1 hr. The well was washed three times with 250 μl of the washing solution, and supplied with 70 μl of peroxidase-labelled anti-rabbit IgG antibody (purchased from Cell Signaling, Production No. 7074) 2,000-fold diluted with the reaction solution, followed by incubating at room temperature for 1 hr. Each well was washed three times with 250 μl of the washing solution, and supplied with 70 μl of TMB Membrane Peroxidase Substrate (purchased from Funakoshi, Production No. 50-5077-03), followed by incubating at room temperature for 10 min. Each well was supplied with 70 μl of 1 M phosphoric acid, and using the Plate Reader MTP-500 (Corona Electric), the absorbance of the well was instantly determined at a measurement wavelength of 450 nm. While defining the absorbance of a well supplied with the cell extract having no test substance as 100% HGFR autophosphorylation activity, and the absorbance of a well supplied with 50 μl of the lysis buffer as 0% HGFR autophosphorylation activity, the HGFR autophosphorylation activity (%) was calculated for each well.
(In general: An ELISA detects its analyte on a solid surface through an enzyme-linked reagent.)

Test [2] relates to Human gastric cancer cells (MKN-45). In words: Inhibitory activity against the proliferation of human gastric cancer cells (MKN-45). As to conditions: 72 h, MKN-45, 1% FBS RPMI1640, 3 days, Cell Counting Kit-8. Format: cell-based. The method, then: Human gastric cancer cells (MKN-45) were suspended in a 1% FBS-containing RPMI1640 medium (purchased from Sigma). The cell suspension (1×10^4 cells/ml) was added in a 96-well plate for cell culture (purchased from NUNC, Production No. 167008) at 0.1 ml/well, and then cultured in a 5% CO2 incubator (37° C.) overnight. After the culture, each well was supplied with 0.1 ml of a test substance diluted with a 1% FBS-containing RPMI1640 medium, followed by culturing in a 5% CO2 incubator (37° C.) for 3 days. After the culture, each well was supplied with 10 μl of Cell Counting Kit-8 (purchased from DOJINDO, Production No. 343-07623), followed by incubation in a 5% CO2 incubator (37° C.) for about 1.5 hrs. After the incubation, using the Plate Reader MTP-500 (Corona Electric), the absorbance of each well was determined at a measurement wavelength of 450 nm and a reference wavelength of 660 nm.
In general terms: Tetrazolium assays rely on reduction of a dye to a coloured formazan, in cell work by metabolically active cells.

T1 sequence (P08581 956-1390 limits assumed): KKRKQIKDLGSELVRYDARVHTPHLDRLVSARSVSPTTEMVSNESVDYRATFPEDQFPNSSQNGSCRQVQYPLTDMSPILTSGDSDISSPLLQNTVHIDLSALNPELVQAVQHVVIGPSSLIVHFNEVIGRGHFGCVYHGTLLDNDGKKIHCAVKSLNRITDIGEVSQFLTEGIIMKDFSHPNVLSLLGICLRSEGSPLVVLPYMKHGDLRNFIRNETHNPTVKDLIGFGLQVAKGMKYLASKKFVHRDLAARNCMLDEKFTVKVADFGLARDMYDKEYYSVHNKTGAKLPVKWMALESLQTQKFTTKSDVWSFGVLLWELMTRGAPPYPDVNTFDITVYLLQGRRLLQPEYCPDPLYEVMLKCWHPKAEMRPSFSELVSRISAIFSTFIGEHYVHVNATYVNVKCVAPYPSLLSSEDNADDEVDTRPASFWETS
T2 sequence (P08581 25-1390): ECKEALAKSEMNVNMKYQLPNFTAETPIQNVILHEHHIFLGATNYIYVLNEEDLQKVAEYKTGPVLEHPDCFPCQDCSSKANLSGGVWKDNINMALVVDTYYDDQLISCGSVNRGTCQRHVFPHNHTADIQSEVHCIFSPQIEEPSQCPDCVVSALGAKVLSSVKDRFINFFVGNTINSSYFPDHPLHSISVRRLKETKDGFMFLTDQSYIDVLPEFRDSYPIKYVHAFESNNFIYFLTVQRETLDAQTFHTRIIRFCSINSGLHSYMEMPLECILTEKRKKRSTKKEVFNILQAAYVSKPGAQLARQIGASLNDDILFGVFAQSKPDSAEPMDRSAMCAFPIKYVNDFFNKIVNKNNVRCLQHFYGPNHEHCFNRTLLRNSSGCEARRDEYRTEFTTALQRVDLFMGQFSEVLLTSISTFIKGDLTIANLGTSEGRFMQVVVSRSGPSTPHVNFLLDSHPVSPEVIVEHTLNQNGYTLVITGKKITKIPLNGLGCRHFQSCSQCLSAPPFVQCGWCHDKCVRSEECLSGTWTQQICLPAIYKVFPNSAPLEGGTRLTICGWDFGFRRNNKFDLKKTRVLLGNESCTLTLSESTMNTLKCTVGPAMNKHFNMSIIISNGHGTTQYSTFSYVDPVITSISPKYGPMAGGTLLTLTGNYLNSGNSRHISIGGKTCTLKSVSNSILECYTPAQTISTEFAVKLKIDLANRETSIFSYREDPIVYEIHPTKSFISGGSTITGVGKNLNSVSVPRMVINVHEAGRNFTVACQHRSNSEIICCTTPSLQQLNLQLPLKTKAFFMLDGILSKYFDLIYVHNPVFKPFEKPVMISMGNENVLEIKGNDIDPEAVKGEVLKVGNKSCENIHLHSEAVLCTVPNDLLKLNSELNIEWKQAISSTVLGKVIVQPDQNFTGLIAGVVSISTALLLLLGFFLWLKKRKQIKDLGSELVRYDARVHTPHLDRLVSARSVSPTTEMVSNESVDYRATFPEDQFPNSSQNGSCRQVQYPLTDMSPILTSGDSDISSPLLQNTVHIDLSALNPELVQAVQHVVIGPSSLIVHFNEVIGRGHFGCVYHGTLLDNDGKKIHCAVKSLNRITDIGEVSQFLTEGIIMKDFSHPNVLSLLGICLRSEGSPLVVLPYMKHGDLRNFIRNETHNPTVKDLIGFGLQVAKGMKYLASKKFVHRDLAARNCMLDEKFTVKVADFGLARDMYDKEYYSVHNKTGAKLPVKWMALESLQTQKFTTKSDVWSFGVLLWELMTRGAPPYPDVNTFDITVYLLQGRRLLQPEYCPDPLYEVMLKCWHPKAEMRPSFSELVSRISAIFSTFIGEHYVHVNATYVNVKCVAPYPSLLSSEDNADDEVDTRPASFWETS

Broadly, the IC50 is the point on the concentration scale where inhibition reaches its midpoint. As for `CN1CCC(N(C)C(=O)Nc2cc(Oc3ccc(NC(=O)C4(C(=O)NCc5ccccc5)CC4)c(F)c3)ccn2)CC1` [Example 49, N-Benzyl-N′-(2-fluoro-4-{[2-({[methyl(1-methylpiperidin-4-yl)amino]carbonyl}amino)pyridin-4-yl]oxy}phenyl)cyclopropane-1,1-dicarboxamide], the values for the IC50 (in test [1]; against HGFR) were 180 nM and 260 nM, respectively.
For `CN1CCC(N(C)C(=O)Nc2cc(Oc3ccc(NC(=O)C4(C(=O)NCC(C)(C)C)CC4)c(F)c3)ccn2)CC1` [Example 53, N-(2,2-Dimethylpropyl)-N′-(2-fluoro-4-{[2-({[methyl(1-methylpiperidin-4-yl)amino]carbonyl}amino)pyridin-4-yl]oxy}phenyl)cyclopropane-1,1-dicarboxamide], the figures for the IC50 (in test [1]; against HGFR) were 270 nM and 370 nM, respectively.
Take `CN(C)CC1CCN(C(=O)Nc2cc(Oc3ccc(NC(=O)C4(C(=O)Nc5ccc(F)cc5)CCC4)cc3F)ccn2)CC1` [Example 6, N-[4-({2-[({4-[(Dimethylamino)methyl]piperidin-1-yl}carbonyl)amino]pyridin-4-yl}oxy)-3-fluorophenyl]-N′-(4-fluorophenyl)cyclobutane-1,1-dicarboxamide]: the 50% inhibitory concentration (IC50) in test [1] amounted to 640 nM.
As to `CN1CCC(N(C)C(=O)Nc2cc(Oc3ccc(NC(=O)C4(C(=O)Nc5cccnc5)CC4)c(F)c3)ccn2)CC1` [Example 51, N-(2-Fluoro-4-{[2-({[methyl(1-methylpiperidin-4-yl)amino]carbonyl}amino)pyridin-4-yl]oxy}phenyl)-N′-pyridin-3-ylcyclopropane-1,1-dicarboxamide], the IC50 came to 250 nM in test [1] and 380 nM against HGFR.
In test [2], `O=C(Nc1cc(Oc2cc(F)c(NC(=O)C3(C(=O)Nc4ccc(F)cc4)CC3)cc2F)ccn1)N1CC(O)C1` [Example 91, N-[2,5-Difluoro-4-[(2-{[(3-hydroxyazetidin-1-yl)carbonyl]amino}pyridin-4-yl)oxy]phenyl}1-N′-(4-fluorophenyl)cyclopropane-1,1-dicarboxamide] came in with a half-maximal inhibitory concentration (IC50) of 5 nM.
Consider `CN1CCC(N(C)C(=O)Nc2cc(Oc3ccc(NC(=O)C4(C(=O)NC5CCCC5)CC4)c(F)c3)ccn2)CC1` [Example 52, N-Cyclopentyl-N′-(2-fluoro-4-{[2-({[methyl(1-methylpiperidin-4-yl)amino]carbonyl}amino)pyridin-4-yl]oxy}phenyl)cyclopropane-1,1-dicarboxamide], for which the IC50 in test [1] amounted to 160 nM; on HGFR it was 170 nM.
Consider `CN1CCC(N(C)C(=O)Nc2cc(Oc3cc(F)c(NC(=O)C4(C(=O)Nc5ccc(F)cc5)CC4)cc3F)ccn2)CC1` [Example 94], for which inhibition in test [2] was half-maximal at 4.9 nM (IC50).
